Measured values published in patent US9481648B2, “Kinase inhibitors” (Respivert Limited, priority 2013, dated 2016).

Assays:
[1] = biological target: c-Src (Homo sapiens (Human), UniProt P12931); experiment: c-Src enzyme inhibition (FRET, Z-LYTE); format: biochemical
Protocol: (§1) The enzyme inhibitory activities of compounds disclosed herein are determined by FRET using synthetic peptides labelled with both donor and acceptor fluorophores (Z-LYTE, Invitrogen Ltd., Paisley, UK).
(§2) The relevant enzyme (3000 ng/mL or 2000 ng/mL respectively, 2.5 μL) is incubated with the test compound (either 1 μg/mL, 0.1 μg/mL, 0.01 μg/mL, or 0.001 μg/mL, 2.5 μL each) for 2 hr at RT. The FRET peptides (8 μM, 2.5 μL), and appropriate ATP solutions (2.5 μL, 800 μM for c-Src, and 60 μM ATP for Syk) are then added to the enzymes/compound mixtures and the mixture incubated for 1 hr. Development reagent (protease, 5 μL) is added for 1 hr prior to detection in a fluorescence microplate reader (Varioskan® Flash, ThermoFisher Scientific).
(§3) In all cases, the site-specific protease cleaves non-phosphorylated peptide only and eliminates the FRET signal. Phosphorylation levels of each reaction are calculated using the ratio of coumarin emission (donor) over fluorescein emission (acceptor), for which high ratios indicate high phosphorylation and low ratios indicate low phosphorylation levels.

[2] = test system: β-catenin in d-U937 cells; experiment: Accumulation of β catenin in d-U937 cells (assay m); format: cell-based, human
Protocol: U937 cells, a human monocytic cell line, are differentiated into macrophage-type cells by incubation with PMA (100 ng/mL) for between 48 to 72 hr. The cells are then incubated with either final concentrations of test compound or vehicle for 18 hr. The induction of β-catenin by the test compounds is stopped by replacing the media with 4% formaldehyde solution. Endogenous […] is neutralised by incubating with quenching buffer (100 μL, 0.1% sodium azide, 1% H2O2 in PBS with 0.05% Tween-20) for 20 min. The cells are washed with washing buffer (200 μL; PBS containing 0.05% Tween-20) and incubated with blocking solution (200 μL; 5% milk in PBS) for 1 hr, re-washed with washing buffer (200 μL) and then incubated overnight with anti-β-catenin antibody solution (50 μL) in 1% BSA/PBS (BD, Oxford, UK).
After washing with washing buffer (3×200 μL; PBS containing 0.05% Tween-20), cells are incubated with a HRP-conjugated secondary antibody solution (100 μL) in 1% BSA/PBS (Dako, Cambridge, UK) and the resultant signal is determined colourimetrically (OD: 450 nm with a reference wavelength of 655 nm) using TMB substrate (50 μL; R&D Systems, Abingdon, UK). This reaction is stopped by addition of 1N H2SO4 solution (50 μL). Cells are then washed with washing buffer and 2% crystal violet solution (50 μL) is applied for 30 min. After washing with washing buffer (3×200 μL), 1% SDS (100 μL) is added to each well and the plates are shaken lightly for 1 hr prior to measuring the absorbance at 595 nm (Varioskan® Flash, Thermo-Fisher Scientific).
The measured OD450-655 readings are corrected for cell number by dividing the OD450-655 by the OD595 readings.

[3] = biological target: p38 MAPKα (MAPK14) (Homo sapiens (Human), UniProt Q16539); experiment: p38 MAPKα enzyme inhibition (FRET, Z-LYTE; Method 2); format: biochemical
p38 MAPKα (MAPK14), sequence (Q16539 whole entry): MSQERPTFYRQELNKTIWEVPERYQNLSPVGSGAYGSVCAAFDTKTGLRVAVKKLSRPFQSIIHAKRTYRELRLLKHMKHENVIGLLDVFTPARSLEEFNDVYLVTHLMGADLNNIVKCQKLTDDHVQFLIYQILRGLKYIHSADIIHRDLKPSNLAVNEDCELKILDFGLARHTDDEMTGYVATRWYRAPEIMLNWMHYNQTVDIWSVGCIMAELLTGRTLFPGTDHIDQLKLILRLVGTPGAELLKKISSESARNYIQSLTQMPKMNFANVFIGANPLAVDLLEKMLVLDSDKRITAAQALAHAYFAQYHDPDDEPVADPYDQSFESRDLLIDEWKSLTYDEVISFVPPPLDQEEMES
Protocol: as §1
The inhibitory activities of test compounds against the p38 MAPKα isoform (MAPK14: Invitrogen) are evaluated indirectly by determining the level of activation\phosphorylation of the down-stream molecule, MAPKAP-K2. The p38 MAPKα protein (80 ng/mL, 2.5 μL) is mixed with the test compound (2.5 μL of either 4 μg/mL, 0.4 μg/mL, 0.04 μg/mL or 0.004 μg/mL) for 2 hr at RT. […] The mixture is incubated for 1 hr at RT. Development reagent (protease, 5 μL) is added for 1 hr prior to detection in a fluorescence microplate reader (Vanoskan® Flash, ThermoFisher Scientific).
as §3

[4] = biological target: Syk (Homo sapiens (Human), UniProt P43405); experiment: Syk enzyme inhibition (FRET, Z-LYTE); format: biochemical
Protocol: as §1, §2, §3

[5] = biological target: GSK 3α (Homo sapiens (Human), UniProt P49840); experiment: GSK 3α enzyme inhibition (FRET, Z-LYTE; Method 2); format: biochemical; settings: read-out: IC50 Values for Enzyme Inhibition GSK3α
GSK 3α, sequence (P49840 whole entry): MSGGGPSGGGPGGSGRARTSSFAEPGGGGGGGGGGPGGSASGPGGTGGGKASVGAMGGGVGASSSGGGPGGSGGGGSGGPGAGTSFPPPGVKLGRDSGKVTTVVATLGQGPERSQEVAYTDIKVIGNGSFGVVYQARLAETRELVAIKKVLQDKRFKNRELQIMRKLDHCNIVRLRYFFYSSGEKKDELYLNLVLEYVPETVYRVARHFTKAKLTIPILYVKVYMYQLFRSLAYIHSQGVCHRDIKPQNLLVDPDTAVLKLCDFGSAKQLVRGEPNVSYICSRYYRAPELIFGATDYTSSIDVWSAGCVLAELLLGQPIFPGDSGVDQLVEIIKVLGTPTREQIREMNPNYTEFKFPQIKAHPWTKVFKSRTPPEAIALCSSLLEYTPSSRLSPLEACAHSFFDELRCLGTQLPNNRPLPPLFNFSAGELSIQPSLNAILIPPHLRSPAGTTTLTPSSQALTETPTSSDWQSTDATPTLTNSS
Summary of the method: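 Z-LYTE FRET assay: GSK3-α (500 ng/mL stock) preincubated 105 min at RT with compound at 10, 1, 0.1 or 0.01 μg/mL stock. FRET peptide (8 μM stock) and ATP (40 μM stock) were then added for 1 h, followed by protease development for 1 h. Phosphorylation was read as coumarin/fluorescein emission ratio.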

c-Src, sequence (P12931 whole entry, looked up): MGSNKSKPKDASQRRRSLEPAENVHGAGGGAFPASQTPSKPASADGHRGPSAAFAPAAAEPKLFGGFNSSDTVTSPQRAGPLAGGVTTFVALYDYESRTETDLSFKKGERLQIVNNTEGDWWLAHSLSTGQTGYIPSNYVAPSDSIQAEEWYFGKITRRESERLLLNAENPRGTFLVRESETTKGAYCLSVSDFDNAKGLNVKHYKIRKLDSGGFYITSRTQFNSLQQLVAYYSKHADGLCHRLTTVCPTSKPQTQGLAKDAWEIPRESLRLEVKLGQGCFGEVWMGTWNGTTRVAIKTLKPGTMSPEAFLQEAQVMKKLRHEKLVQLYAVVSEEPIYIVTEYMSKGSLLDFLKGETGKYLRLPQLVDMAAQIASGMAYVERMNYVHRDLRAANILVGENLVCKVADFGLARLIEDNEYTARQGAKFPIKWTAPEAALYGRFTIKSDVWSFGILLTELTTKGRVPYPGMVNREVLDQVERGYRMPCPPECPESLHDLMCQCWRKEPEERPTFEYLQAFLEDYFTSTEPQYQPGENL

| Structure (SMILES) | IC50 [1] [nM] | % β-catenin induction ([2]; test compound 1 μg/mL) [%] | % β-catenin induction ([2]; test compound 5 μg/mL) [%] | % β-catenin induction ([2]; test compound 10 μg/mL) [%] | IC50 [3] [nM] | IC50 [4] [nM] | IC50 [5] [nM] |
| --- | --- | --- | --- | --- | --- | --- | --- |
| COCCOCCOCCOc1cc(Nc2nccc(Oc3ccc(NC(=O)Nc4cc(C(C)(C)C)cc(S(N)(=O)=O)c4OC)c4ccccc34)n2)cc(OC)c1 [Example 55, 5-(tert-Butyl)-2-methoxy-3-(3-(4-((2-((3-methoxy-5-(2-(2-(2-methoxyethoxy)ethoxy)-ethoxy)phenyl)amino)pyrimidin-4-yl)oxy)naphthalen-1-yl)ureido)benzenesulfonamide] | 22 | 11 | 23 | 45 | 157 | 131 | 2360 |
| COCCOCCOCCNC(=O)c1cc(Nc2nccc(Oc3ccc(NC(=O)Nc4cc(C(C)(C)C)cc(NS(C)(=O)=O)c4OC)c4ccccc34)n2)cc(OC)c1 [Example 7] | 9 | 13 | 29 | 29 | 39 | 554 | 516 |
| C#Cc1cc(Nc2nccc(Oc3ccc(NC(=O)Nc4cc(C(C)(C)C)cc(NS(C)(=O)=O)c4OC)c4ccccc34)n2)cc(C(=O)N[C@H](C)CN2CCOCC2)c1 [Example 56, (R)-3-((4-((4-(3-(5-(tert-Butyl)-2-methoxy-3-(methysulfonamido)phenyl)ureido)-naphthalen-1-yl)oxy)pyrimidin-2-yl)amino)-5-ethynyl-N-(1-morpholinopropan-2-yl)-benzamide] | 45 | 3 | 13 | 14 | 335 | 631 | 763 |
| C#Cc1cc(Nc2nccc(Oc3ccc(NC(=O)Nc4cc(C(C)(C)C)cc(NS(C)(=O)=O)c4OC)c4ccccc34)n2)cc(C(=O)NCCN2CCOCC2)c1 [Example 1, 3-((4-((4-(3-(5-(tert-Butv)-2-methoxy-3-(methysulfonamido)phenyl)ureido)naphthalen-1-yl)oxy)pyrimidin-2-yl)amino)-5-ethynyl-N-(2-morpholinoethyl)benzamide] | 12 | 18 | 17 | – | 118 | 51 | 657 |
| COc1cc(Nc2cc(Oc3ccc(NC(=O)Nc4cc(C(C)(C)C)cc(NS(C)(=O)=O)c4OC)c4ccccc34)ccn2)cc(OCCOCCOCCO)c1 [84(e), 1-[5-tert-Butyl-3-(methanesulfonamido)-2-methoxy-phenyl]-3-[4-[[2-[3-[2-[2-(2-hydroxyethoxy)ethoxy]ethoxy]-5-methoxy-anilino]-4-pyridyl]oxy]-1-naphthyl]urea] | 36 | −1 | 5 | 7 | 77 | 125 | 4470 |
| CNC(=O)c1cc(C(C)(C)C)cc(NC(=O)Nc2ccc(Oc3ccnc(Nc4cc(CO)cc(OC)c4)c3)c3ccccc23)c1OC [84(h), 5-tert-Butyl-3-[[4-[[2-[3-(hydroxymethyl)-5-methoxyanilino]-4-pyridyl]oxy]-1-naphthyl]carbamoylamino]-2-methoxy-N-methyl-benzamide] | 21 | −1 | 11 | 10 | 79 | 130 | 1650 |
| C#Cc1cc(Nc2cc(Oc3ccc(NC(=O)Nc4cc(C(C)(C)C)cc(NS(C)(=O)=O)c4OC)c4ccccc34)ccn2)cc(C(=O)N[C@@H](C)COCCOCCOC)c1 [Example 67] | 56 | 3 | 2 | −2 | 245 | 1170 | 11700 |
| COc1cc(CO)cc(Nc2cc(Oc3ccc(NC(=O)Nc4cc(C(C)(C)C)cc(C(N)=O)c4OC)c4ccccc34)ccn2)c1 [84(g), 5-tert-Butyl-3-[[4-[[2-[3-(hydroxymethyl)-5-methoxyanilino]-4-pyridyl]oxy]-1-naphthyl]carbamoylamino]-2-methoxybenzamide] | 28 | 1 | 8 | 7 | 86 | 137 | 2280 |
| COCCOCCOCCOc1cc(Nc2cc(Oc3ccc(NC(=O)Nc4cc(C(C)(C)C)cc(C(=O)NC5COC5)c4OC)c4ccccc34)ccn2)cc(OC)c1 [Example 77, 5-(tert-Butyl)-2-methoxy-3-(3-(4-((2-((3-methoxy-5-(2-(2-(2-methoxyethoxy)ethoxy)ethoxy)-phenyl)amino)pyridin-4-yl)oxy)naphthalen-1-yl)ureido)-N-(oxetan-3-yl)benzamide] | 23 | −4 | −1 | −1 | 216 | 39 | 3540 |
| COc1cccc(Nc2cc(Oc3ccc(NC(=O)Nc4cc(C(C)(C)C)cc(C(=O)NC5COC5)c4OC)c4ccccc34)ccn2)c1 [Example 81, 5-(tert-Butyl)-2-methoxy-3-(3-(4-((2-((3-methoxyphenyl)amino)pyridin-4-yl)oxy)naphthalen-1-yl)ureido)-N-(oxetan-3-yl)benzamide] | 58 | 4 | 14 | 13 | 173 | 121 | 4930 |
| COc1cc(Nc2cc(Oc3ccc(NC(=O)Nc4cc(C(C)(C)C)cc(C(N)=O)c4OC)c4ccccc34)ccn2)cc(C(=O)NCCN2CCOCC2)c1 [Example 47, 3-((4-((4-(3-(5-(tert-Butyl)-3-carbamoyl-2-methoxyphenyl)ureido)naphthalen-1-yl)oxy)pyridin-2-yl)amino)-5-methoxy-N-(2-morpholinoethyl)benzamide] | 15 | −5 | 4 | 8 | 92 | 169 | 1600 |
| C#Cc1cc(Nc2cc(Oc3ccc(NC(=O)Nc4cc(C(N)=O)cc(C(C)(C)C)c4)c4ccccc34)ccn2)cc(C(=O)NCCOCCOCCOC)c1 [Example 62, 3-((4-((4-(3-(3-(tert-Butyl)-5-carbamoylphenyl)ureido)naphthalen-1-yl)oxy)vridin-2-yl)amino)-5-ethynyl-N-(2-(2-(2-methoxyethoxy)ethoxy)ethyl)benzamide] | 44 | – | – | – | 32 | 1320 | 10600 |
| COCCOCCOCCOc1cc(Nc2nccc(Oc3ccc(NC(=O)Nc4cc(C(C)(C)C)cc(-c5cnn[nH]5)c4OC)c4ccccc34)n2)cc(OC)c1 [Example 70, 1-(5-(tert-Butyl)-2-methoxy-3-(1H-1,2,3-triazol-5-yl)phenyl)-3-(4-((2-((3-methoxy-5-(2-(2-(2-methoxyethoxy)ethoxy)ethoxy)phenyl)amino)pyrimidin-4-yl)oxy)naphthalen-1-yl)urea] | 67 | – | – | – | 332 | 86 | 3970 |
